In patent publication US8741934B2, “Inhibitors of ion channels” (Pfizer Limited, priority 2007, dated 2014):

These compounds were tested against T1, hSCN3A sodium channels (Homo sapiens, UniProt Q9NY46) (assay: hSCN3A electrophysiology, whole-cell patch-clamp or PatchXpress 7000, estimated IC-50 (Table B)). Settings: estimated IC-50; hSCN3A cells, whole-cell patch-clamp or PatchXpress 7000; read-out: SCN3A EIC-50.
T1 construct: expressed in transfected cells
T1 sequence (Q9NY46 whole entry): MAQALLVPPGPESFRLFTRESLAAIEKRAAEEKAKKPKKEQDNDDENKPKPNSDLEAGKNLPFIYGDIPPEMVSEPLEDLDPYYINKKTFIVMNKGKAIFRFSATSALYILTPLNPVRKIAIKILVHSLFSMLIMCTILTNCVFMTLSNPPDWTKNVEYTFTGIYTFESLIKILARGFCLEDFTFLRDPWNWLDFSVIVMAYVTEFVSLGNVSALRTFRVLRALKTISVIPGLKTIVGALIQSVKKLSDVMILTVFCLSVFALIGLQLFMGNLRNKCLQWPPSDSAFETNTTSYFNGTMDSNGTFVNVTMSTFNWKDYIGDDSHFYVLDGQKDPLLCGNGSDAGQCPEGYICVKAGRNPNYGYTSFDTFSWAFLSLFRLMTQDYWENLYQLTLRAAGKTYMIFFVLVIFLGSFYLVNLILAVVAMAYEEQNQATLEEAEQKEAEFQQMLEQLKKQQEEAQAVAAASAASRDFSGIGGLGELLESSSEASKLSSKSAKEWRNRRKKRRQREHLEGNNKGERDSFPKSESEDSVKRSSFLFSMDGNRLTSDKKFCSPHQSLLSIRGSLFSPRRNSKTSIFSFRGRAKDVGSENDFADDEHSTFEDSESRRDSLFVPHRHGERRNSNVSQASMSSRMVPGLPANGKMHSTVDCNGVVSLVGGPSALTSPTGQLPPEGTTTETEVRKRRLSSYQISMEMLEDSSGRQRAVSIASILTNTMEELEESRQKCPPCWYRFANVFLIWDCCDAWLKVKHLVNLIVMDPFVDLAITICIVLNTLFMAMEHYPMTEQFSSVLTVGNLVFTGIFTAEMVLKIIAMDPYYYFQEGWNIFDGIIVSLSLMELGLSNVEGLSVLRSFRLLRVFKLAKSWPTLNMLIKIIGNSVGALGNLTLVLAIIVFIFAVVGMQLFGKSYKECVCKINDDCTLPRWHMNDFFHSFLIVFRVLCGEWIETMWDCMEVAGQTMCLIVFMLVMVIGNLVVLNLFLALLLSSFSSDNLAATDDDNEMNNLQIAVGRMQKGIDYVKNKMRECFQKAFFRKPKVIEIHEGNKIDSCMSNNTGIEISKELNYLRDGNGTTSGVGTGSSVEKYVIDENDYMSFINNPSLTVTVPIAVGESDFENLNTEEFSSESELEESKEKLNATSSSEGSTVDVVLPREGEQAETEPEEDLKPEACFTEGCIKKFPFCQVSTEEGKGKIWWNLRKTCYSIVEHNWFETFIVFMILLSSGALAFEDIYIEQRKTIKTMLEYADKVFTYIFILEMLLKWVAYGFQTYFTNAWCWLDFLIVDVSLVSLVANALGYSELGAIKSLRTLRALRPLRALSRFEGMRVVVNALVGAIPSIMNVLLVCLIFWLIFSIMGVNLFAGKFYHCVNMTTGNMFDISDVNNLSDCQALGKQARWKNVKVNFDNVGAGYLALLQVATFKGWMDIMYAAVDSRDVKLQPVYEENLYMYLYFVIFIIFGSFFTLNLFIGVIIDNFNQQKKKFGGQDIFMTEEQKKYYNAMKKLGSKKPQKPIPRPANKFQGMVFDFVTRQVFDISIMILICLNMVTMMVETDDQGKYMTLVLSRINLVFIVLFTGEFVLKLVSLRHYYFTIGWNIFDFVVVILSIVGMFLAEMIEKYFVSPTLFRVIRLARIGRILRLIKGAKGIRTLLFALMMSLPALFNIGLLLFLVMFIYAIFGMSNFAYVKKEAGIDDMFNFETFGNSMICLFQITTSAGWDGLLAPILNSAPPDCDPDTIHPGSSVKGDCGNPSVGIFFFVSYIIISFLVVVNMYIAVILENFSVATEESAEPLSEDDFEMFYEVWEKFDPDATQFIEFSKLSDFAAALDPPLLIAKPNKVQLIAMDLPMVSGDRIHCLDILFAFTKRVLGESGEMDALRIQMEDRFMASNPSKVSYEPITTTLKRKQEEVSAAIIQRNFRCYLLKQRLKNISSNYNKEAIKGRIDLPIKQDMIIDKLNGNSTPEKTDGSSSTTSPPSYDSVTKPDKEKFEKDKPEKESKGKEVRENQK
Format: cell-based
Method in brief: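 Stably transfected HEK cells, whole-cell voltage clamp at 22-24° C, manual or PatchXpress 7000. Cells held at empirically determined inactivation V1/2; current evoked by 20 msec step to 0 mV after 8 sec prepulse to V1/2.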
Work on `O=C(NCCc1cccc(Cl)c1)c1ccc(S(=O)(=O)Nc2nccs2)cc1` [Example 70, N-[2-(3-chlorophenyl)ethyl]-4-[(1,3-thiazol-2-ylamino)sulfonyl]benzamide] yielded an IC50 greater than 0.3 µM. `O=C(NCCc1ccc(Cl)cc1)c1ccc(S(=O)(=O)Nc2nccs2)cc1` [Example 72, N-[2-(4-chlorophenyl)ethyl]-4-[(1,3-thiazol-2-ylamino)sulfonyl]benzamide] gave an IC50 of 0.66 µM. `O=C(NCc1cccc(OC(F)(F)F)c1)c1ccc(S(=O)(=O)Nc2nccs2)cc1` [Example 73, 4-[(1,3-Thiazol-2-ylamino)sulfonyl]-N-[3-(trifluoromethoxy)benzyl]benzamide] was tested, and the IC50 was 0.18 µM. In the case of `O=C(NCCc1cccc(C(F)(F)F)c1)c1ccc(S(=O)(=O)Nc2nccs2)cc1` [Example 74, 4-[(1,3-Thiazol-2-ylamino)sulfonyl]-N-{2-[3-(trifluoromethyl)phenyl]ethyl}benzamide], the IC50 is reported as 0.54 µM. In the case of `O=C(NCCc1cccc(F)c1)c1ccc(S(=O)(=O)Nc2nccs2)cc1` [Example 75, N-[2-(3-fluorophenyl)ethyl]-4-[(1,3-thiazol-2-ylamino)sulfonyl]benzamide], the IC50 is reported as greater than 0.3 µM. With `O=C(NCc1ccccc1OC(F)(F)F)c1ccc(S(=O)(=O)Nc2nccs2)cc1` [Example 78, 4-[(1,3-Thiazol-2-ylamino)sulfonyl]-N-[2-(trifluoromethoxy)benzyl]benzamide] the IC50 was 1.63 µM. For `O=C(NCc1ccc(F)cc1C(F)(F)F)c1ccc(S(=O)(=O)Nc2nccs2)cc1` [Example 80, N-[4-fluoro-2-(trifluoromethyl)benzyl]-4-[(1,3-thiazol-2-ylamino)sulfonyl]benzamide], the IC50 was greater than 0.1 µM. With `O=C(NCc1cc(F)cc(F)c1)c1ccc(S(=O)(=O)Nc2nccs2)cc1` [Example 83, N-(3,5-difluorobenzyl)-4-[(1,3-thiazol-2-ylamino)sulfonyl]benzamide] the IC50 was 0.62 µM. Work on `O=C(NCc1ccccc1C(F)(F)F)c1ccc(S(=O)(=O)Nc2nccs2)cc1` [Example 88, 4-[(1,3-Thiazol-2-ylamino)sulfonyl]-N-[2-(trifluoromethyl)benzyl]benzamide] yielded an IC50 greater than 0.1 µM. Compound `O=C(NCc1cccc(F)c1)c1ccc(S(=O)(=O)Nc2nccs2)cc1` [Example 90, N-(3-fluorobenzyl)-4-[(1,3-thiazol-2-ylamino)sulfonyl]benzamide] has an IC50 of 1.66 µM. `Cc1ccccc1CNC(=O)c1ccc(S(=O)(=O)Nc2nccs2)cc1` [Example 91, N-(2-methylbenzyl)-4-[(1,3-thiazol-2-ylamino)sulfonyl]benzamide] was tested, and the IC50 was 1.22 µM. Work on `O=C(NCc1ccc(F)cc1)c1ccc(S(=O)(=O)Nc2nccs2)cc1` [Example 92, N-(4-fluorobenzyl)-4-[(1,3-thiazol-2-ylamino)sulfonyl]benzamide] yielded an IC50 of 0.58 µM. `O=C(NCc1ccc(Cl)cc1F)c1ccc(S(=O)(=O)Nc2nccs2)cc1` [Example 93, N-(4-chloro-2-fluorobenzyl)-4-[(1,3-thiazol-2-ylamino)sulfonyl]benzamide] showed an IC50 of 0.46 µM. `O=C(NCc1ccc(F)cc1F)c1ccc(S(=O)(=O)Nc2nccs2)cc1` [Example 94, N-(2,4-difluorobenzyl)-4-[(1,3-thiazol-2-ylamino)sulfonyl]benzamide] was tested, and the IC50 was greater than 0.1 µM. Work on `O=C(NCc1ccc(F)cc1Cl)c1ccc(S(=O)(=O)Nc2nccs2)cc1` [Example 95, N-(2-chloro-4-fluorobenzyl)-4-[(1,3-thiazol-2-ylamino)sulfonyl]benzamide] yielded an IC50 greater than 0.1 µM. `O=C(NCCc1ccccc1Cl)c1ccc(S(=O)(=O)Nc2nccs2)cc1` [Example 96, N-[2-(2-chlorophenyl)ethyl]-4-[(1,3-thiazol-2-ylamino)sulfonyl]benzamide] showed an IC50 of 0.91 µM. For `O=C(NCc1cccc(Cl)c1Cl)c1ccc(S(=O)(=O)Nc2nccs2)cc1` [Example 97, N-(2,3-dichlorobenzyl)-4-[(1,3-thiazol-2-ylamino)sulfonyl]benzamide], the IC50 was 0.64 µM. For `O=C(NCCc1ccc(C(F)(F)F)cc1)c1ccc(S(=O)(=O)Nc2nccs2)cc1` [Example 101, 4-[(1,3-Thiazol-2-ylamino)sulfonyl]-N-{2-[4-(trifluoromethyl)phenyl]ethyl}benzamide], the IC50 was 0.57 µM. Compound `O=C(Nc1nccc2cccnc12)c1ccc(S(=O)(=O)Nc2nccs2)cc1` [Example 116, N-1,7-naphthyridin-8-yl-4-[(1,3-thiazol-2-ylamino)sulfonyl]benzamide] has an IC50 greater than 0.1 µM. Work on `O=C(Nc1nccc2ccccc12)c1ccc(S(=O)(=O)Nc2nccs2)cc1` [Example 117, N-isoquinolin-1-yl-4-[(1,3-thiazol-2-ylamino)sulfonyl]benzamide] yielded an IC50 of 12.7 µM. `CC(NC(=O)c1ccc(S(=O)(=O)Nc2nccs2)cc1)c1ccc(C(F)(F)F)cc1` (stereo not drawn) [Example 118, 4-[(1,3-Thiazol-2-ylamino)sulfonyl]-N-{1-[4-(trifluoromethyl)phenyl]ethyl}benzamide] showed an IC50 of 0.76 µM. `O=C(NC(c1cccc(C(F)(F)F)c1F)C1CC1)c1ccc(S(=O)(=O)Nc2nccs2)cc1` (stereo not drawn) [Example 119, N-{cyclopropyl[2-fluoro-3-(trifluoromethyl)phenyl]methyl}-4-[(1,3-thiazol-2-ylamino)sulfonyl]benzamide] showed an IC50 of 1.29 µM. `O=C(NCc1cc(C(F)(F)F)ccc1Cl)c1ccc(S(=O)(=O)Nc2nccs2)cc1` [Example 120, N-[2-chloro-5-(trifluoromethyl)benzyl]-4-[(1,3-thiazol-2-ylamino)sulfonyl]benzamide] gave an IC50 of 0.5 µM. For `O=C(NCc1ccccc1SC(F)(F)F)c1ccc(S(=O)(=O)Nc2nccs2)cc1` [Example 122, 4-[(1,3-Thiazol-2-ylamino)sulfonyl]-N-{2-[(trifluoromethyl)thio]benzyl}benzamide], the IC50 was 1.3 µM. `CC(C)(NC(=O)c1ccc(S(=O)(=O)Nc2nccs2)cc1)c1ccc(C(F)(F)F)cc1` [Example 123, N-{1-methyl-1-[4-(trifluoromethyl)phenyl]ethyl}-4-[(1,3-thiazol-2-ylamino)sulfonyl]benzamide] was tested, and the IC50 was 1.44 µM. `CC(C)(NC(=O)c1ccc(S(=O)(=O)Nc2nccs2)cc1)c1ccc(Cl)cc1` [Example 124, N-[1-(4-chlorophenyl)-1-methylethyl]-4-[(1,3-thiazol-2-ylamino)sulfonyl]benzamide] showed an IC50 of 1.81 µM. For `CC(C)(NC(=O)c1ccc(S(=O)(=O)Nc2nccs2)cc1)c1cccc(C(F)(F)F)c1` [Example 125, N-{1-methyl-1-[3-(trifluoromethyl)phenyl]ethyl}-4-[(1,3-thiazol-2-ylamino)sulfonyl]benzamide], the IC50 was 6.45 µM. With `O=C(NCc1cc(Cl)ccc1Cl)c1ccc(S(=O)(=O)Nc2nccs2)cc1` [Example 126, N-(2,5-dichlorobenzyl)-4-[(1,3-thiazol-2-ylamino)sulfonyl]benzamide] the IC50 was 0.29 µM. For `CC(CNC(=O)c1ccc(S(=O)(=O)Nc2nccs2)cc1)c1ccc(Cl)cc1` (stereo not drawn) [Example 133, N-[2-(4-chlorophenyl)propyl]-4-[(1,3-thiazol-2-ylamino)sulfonyl]benzamide], the IC50 was 1.15 µM. Compound `O=C(NC1(Cc2ccc(Cl)cc2)CC1)c1ccc(S(=O)(=O)Nc2nccs2)cc1` [Example 134, N-[1-(4-chlorobenzyl)cyclopropyl]-4-[(1,3-thiazol-2-ylamino)sulfonyl]benzamide] has an IC50 of 2.28 µM. For `Cc1cc(CC(NC(=O)c2ccc(S(=O)(=O)Nc3nccs3)cc2)c2cccc(Cl)c2)on1` (stereo not drawn) [Example 136, N-[1-(3-chlorophenyl)-2-(3-methylisoxazol-5-yl)ethyl]-4-[(1,3-thiazol-2-ylamino)sulfonyl]benzamide], the IC50 was 4.26 µM. In the case of `O=C(NC1(c2ccc(Cl)cc2)CC1)c1ccc(S(=O)(=O)Nc2nccs2)cc1` [Example 139, N-[1-(4-chlorophenyl)cyclopropyl]-4-[(1,3-thiazol-2-ylamino)sulfonyl]benzamide], the IC50 is reported as 1.66 µM. `O=C(NCCOc1cccc(Cl)c1)c1ccc(S(=O)(=O)Nc2nccs2)cc1` [Example 144, N-[2-(3-chlorophenoxy)ethyl]-4-[(1,3-thiazol-2-ylamino)sulfonyl]benzamide] showed an IC50 of 1.18 µM. Compound `CC(CNC(=O)c1ccc(S(=O)(=O)Nc2nccs2)cc1)Oc1ccccc1Cl` (stereo not drawn) [Example 147, N-[2-(2-chlorophenoxy)propyl]-4-[(1,3-thiazol-2-ylamino)sulfonyl]benzamide] has an IC50 of 2.52 µM. `O=C(NCCOc1ccccc1Cl)c1ccc(S(=O)(=O)Nc2nccs2)cc1` [Example 148, N-[2-(2-chlorophenoxy)ethyl]-4-[(1,3-thiazol-2-ylamino)sulfonyl]benzamide] gave an IC50 of 2.5 µM. In the case of `O=C(NC1CCc2ccccc21)c1ccc(S(=O)(=O)Nc2nccs2)cc1` (stereo not drawn) [Example 158, N-(2,3-dihydro-1H-inden-1-yl)-4-[(1,3-thiazol-2-ylamino)sulfonyl]benzamide], the IC50 is reported as 2.39 µM. Work on `O=C(NCCc1ccccc1)c1ccc(S(=O)(=O)Nc2nccs2)cc1` [Example 163, N-(2-phenylethyl)-4-[(1,3-thiazol-2-ylamino)sulfonyl]benzamide] yielded an IC50 of 5.05 µM. For `COc1ccccc1CCNC(=O)c1ccc(S(=O)(=O)Nc2nccs2)cc1` [Example 165, N-[2-(2-methoxyphenyl)ethyl]-4-[(1,3-thiazol-2-ylamino)sulfonyl]benzamide], the IC50 was 4.18 µM. Compound `COc1cccc(CNC(=O)c2ccc(S(=O)(=O)Nc3nccs3)cc2)c1` [Example 170, N-(3-methoxybenzyl)-4-[(1,3-thiazol-2-ylamino)sulfonyl]benzamide] has an IC50 of 3.92 µM. In the case of `O=C(Nc1ccc2c(n1)CCC2)c1ccc(S(=O)(=O)Nc2nccs2)cc1` [Example 172, N-(6,7-dihydro-5H-cyclopenta[b]pyridin-2-yl)-4-[(1,3-thiazol-2-ylamino)sulfonyl]benzamide], the IC50 is reported as 6.52 µM. `O=C(NC1Cc2ccccc2C1)c1ccc(S(=O)(=O)Nc2nccs2)cc1` [Example 173, N-(2,3-dihydro-1H-inden-2-yl)-4-[(1,3-thiazol-2-ylamino)sulfonyl]benzamide] gave an IC50 of 2.67 µM. In the case of `COc1ccccc1CNC(=O)c1ccc(S(=O)(=O)Nc2nccs2)cc1` [Example 174, N-(2-methoxybenzyl)-4-[(1,3-thiazol-2-ylamino)sulfonyl]benzamide], the IC50 is reported as 3.97 µM.
